Measurements reported in ChEMBL document CHEMBL1201862, “PubChem BioAssay data set” (2004).
Calls of active or inactive are those of the source.

Key:
[1] = loss of viability in HepG2 cells – cell-based, CellTiter-Glo, cherry-picked, cytotoxicity control for Shn3 inhibitor project, dose response (AID 624134); assay type: functional
[2] = decrease of insulin promoter-GFP reporter – imaging, high-content screening, mouse beta cells (AID 1628); assay type: functional; conditions: MIN6
[3] = reduction of Shn3 3'UTR-driven luciferase in osteoblasts – cell-based, Clone20 osteoblasts, firefly luciferase, cherry-picked, dose response (AID 624132); assay type: functional;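 further: firefly luciferase luminescence from reporter carrying the Shn3 3'UTR in osteoblasts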
[4] = non-specific 3'UTR reporter inhibition in Clone20-Shn3RL – cell-based, Renilla luciferase, cherry-picked, counter-screen for Shn3 inhibitor project, dose response (AID 624133); assay type: functional
[5] = MIN6 cell viability loss – mouse insulinoma, cytotoxicity control, dose response (AID 2122); assay type: functional;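 further: confirmatory high-throughput counterscreen run to flag cytotoxic compounds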
[6] = target: T1, Adenosylmethionine-8-amino-7-oxononanoate aminotransferase (Mycobacterium tuberculosis, UniProt P9WQ81); experiment: Mycobacterium tuberculosis BioA enzyme inhibitor Measured in Biochemical System Using Plate Reader - 2163-02_Inhibitor_Dose_CherryPick_Activity.; assay type: functional, Mycobacterium tuberculosis UT205
T1 sequence (P9WQ81 whole entry): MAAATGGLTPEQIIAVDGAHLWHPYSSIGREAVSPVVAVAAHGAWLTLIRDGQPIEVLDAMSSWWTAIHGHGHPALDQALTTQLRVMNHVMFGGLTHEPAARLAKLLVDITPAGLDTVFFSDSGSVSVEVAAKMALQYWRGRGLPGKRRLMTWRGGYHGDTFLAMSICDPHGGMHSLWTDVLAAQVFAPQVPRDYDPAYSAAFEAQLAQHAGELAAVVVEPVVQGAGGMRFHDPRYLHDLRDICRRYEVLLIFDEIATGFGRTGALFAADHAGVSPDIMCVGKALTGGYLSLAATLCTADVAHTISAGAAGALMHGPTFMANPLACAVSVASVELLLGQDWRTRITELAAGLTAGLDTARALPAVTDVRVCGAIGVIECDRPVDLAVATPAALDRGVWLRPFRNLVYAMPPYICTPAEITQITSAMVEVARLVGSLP

Cytochrome P450 2C19 = Cytochrome P450 2C19 (Homo sapiens, UniProt P33261); experiment: Cytochrome panel assay with activity outcomes. Panel member name: p450-cyp2c19 Compounds with AC50 equal or less than 10 uM are considered active; assay type: functional; conditions: read-out: AC50
Chain of Cytochrome P450 2C19 (P33261 whole entry): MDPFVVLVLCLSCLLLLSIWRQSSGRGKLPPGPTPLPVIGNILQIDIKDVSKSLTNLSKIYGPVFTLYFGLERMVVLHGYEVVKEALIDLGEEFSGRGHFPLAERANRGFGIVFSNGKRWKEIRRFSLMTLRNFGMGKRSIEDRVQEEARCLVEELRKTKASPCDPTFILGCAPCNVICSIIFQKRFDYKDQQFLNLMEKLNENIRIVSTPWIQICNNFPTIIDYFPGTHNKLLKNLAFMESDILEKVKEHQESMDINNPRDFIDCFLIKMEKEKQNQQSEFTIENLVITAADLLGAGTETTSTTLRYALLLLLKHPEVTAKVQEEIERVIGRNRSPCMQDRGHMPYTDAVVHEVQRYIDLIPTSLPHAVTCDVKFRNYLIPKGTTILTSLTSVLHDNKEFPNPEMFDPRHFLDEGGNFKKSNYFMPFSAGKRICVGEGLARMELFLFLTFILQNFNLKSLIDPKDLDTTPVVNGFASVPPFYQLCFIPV

Cytochrome P450 3A4 [7] = target: T2, Cytochrome P450 3A4 (Homo sapiens, UniProt P08684);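 further: CYP3A4 tested as one member of a cytochrome P450 panel screen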
T2 sequence (P08684 whole entry): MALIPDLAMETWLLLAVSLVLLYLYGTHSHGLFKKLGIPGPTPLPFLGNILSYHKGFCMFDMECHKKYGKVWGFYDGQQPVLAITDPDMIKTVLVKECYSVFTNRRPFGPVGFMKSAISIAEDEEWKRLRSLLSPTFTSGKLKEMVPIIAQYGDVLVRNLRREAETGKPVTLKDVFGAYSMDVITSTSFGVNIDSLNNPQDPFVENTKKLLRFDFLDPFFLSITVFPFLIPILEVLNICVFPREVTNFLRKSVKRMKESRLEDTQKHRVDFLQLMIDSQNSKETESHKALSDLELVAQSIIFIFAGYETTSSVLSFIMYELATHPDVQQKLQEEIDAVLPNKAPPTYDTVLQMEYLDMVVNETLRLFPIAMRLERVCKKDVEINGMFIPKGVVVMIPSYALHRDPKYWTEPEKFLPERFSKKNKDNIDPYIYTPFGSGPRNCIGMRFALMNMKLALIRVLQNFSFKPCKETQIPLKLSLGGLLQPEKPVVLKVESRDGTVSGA

Cytochrome P450 2C9 = Cytochrome P450 2C9 (Homo sapiens, UniProt P11712)
Chain of Cytochrome P450 2C9 (P11712 whole entry): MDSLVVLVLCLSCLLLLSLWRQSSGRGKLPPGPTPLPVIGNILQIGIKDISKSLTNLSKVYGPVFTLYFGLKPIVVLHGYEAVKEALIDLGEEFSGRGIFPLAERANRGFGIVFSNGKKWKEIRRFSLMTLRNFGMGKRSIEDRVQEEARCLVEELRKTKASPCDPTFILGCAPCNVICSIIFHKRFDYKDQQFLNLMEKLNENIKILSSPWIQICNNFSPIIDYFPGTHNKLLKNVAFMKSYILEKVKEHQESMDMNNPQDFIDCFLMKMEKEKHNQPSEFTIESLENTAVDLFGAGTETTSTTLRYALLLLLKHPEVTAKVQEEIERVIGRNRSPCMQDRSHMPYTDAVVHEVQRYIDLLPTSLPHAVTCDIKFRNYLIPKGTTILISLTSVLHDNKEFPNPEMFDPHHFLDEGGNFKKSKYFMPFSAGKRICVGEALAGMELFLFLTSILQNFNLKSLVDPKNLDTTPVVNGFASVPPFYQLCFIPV

Cytochrome P450 1A2 = target: T3, Cytochrome P450 1A2 (Homo sapiens, UniProt P05177);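 further: PubChem cytochrome P450 panel assay, CYP1A2 panel member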
T3 sequence (P05177 whole entry): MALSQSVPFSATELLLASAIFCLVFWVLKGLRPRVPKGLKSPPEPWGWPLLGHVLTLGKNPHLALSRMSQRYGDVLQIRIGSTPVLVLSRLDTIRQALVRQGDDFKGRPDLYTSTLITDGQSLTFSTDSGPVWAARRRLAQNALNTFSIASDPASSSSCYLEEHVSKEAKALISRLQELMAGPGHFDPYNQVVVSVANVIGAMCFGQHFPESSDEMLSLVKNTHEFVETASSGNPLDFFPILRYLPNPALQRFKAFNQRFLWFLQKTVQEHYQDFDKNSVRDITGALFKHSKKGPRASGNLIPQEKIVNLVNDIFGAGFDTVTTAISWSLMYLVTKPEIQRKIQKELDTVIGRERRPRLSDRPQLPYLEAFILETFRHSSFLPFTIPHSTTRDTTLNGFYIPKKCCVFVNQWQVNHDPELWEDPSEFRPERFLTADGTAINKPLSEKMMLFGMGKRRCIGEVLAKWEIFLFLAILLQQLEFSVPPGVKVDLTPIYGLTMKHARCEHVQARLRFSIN

cells [8] = assay type: functional
[9] = Vero E6 cell cytotoxicity, dose response, cytotoxicity control for non-replicating M. tuberculosis project, secondary assay (AID 492998); assay type: functional, VeroE6; conditions: Vero C1008
[10] = THP-1 cell cytotoxicity, dose response, cytotoxicity control for non-replicating M. tuberculosis project (AID 489025); assay type: functional
Cytochrome P450 2D6 = Cytochrome P450 2D6 (Homo sapiens, UniProt P10635);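 further: CYP2D6 member of a cytochrome P450 panel assay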
Chain of Cytochrome P450 2D6 (P10635 whole entry): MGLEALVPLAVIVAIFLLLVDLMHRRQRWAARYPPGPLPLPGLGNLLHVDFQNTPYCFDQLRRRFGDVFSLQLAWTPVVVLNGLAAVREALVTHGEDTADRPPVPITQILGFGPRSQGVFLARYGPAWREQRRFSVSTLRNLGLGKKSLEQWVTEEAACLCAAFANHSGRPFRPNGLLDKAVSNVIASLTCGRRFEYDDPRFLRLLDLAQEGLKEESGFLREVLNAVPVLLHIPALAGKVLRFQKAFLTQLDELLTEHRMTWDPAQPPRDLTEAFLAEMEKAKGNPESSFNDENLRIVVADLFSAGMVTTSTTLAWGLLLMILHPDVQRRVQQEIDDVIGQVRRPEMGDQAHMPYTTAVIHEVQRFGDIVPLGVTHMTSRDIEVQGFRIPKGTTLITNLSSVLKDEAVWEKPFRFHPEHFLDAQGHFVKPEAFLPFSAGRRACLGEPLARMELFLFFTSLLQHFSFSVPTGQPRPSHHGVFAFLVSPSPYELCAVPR

Cytochrome P450 3A4 [11] = target: T2, Cytochrome P450 3A4; remark: listed apart in the source
cells [12] = assay type: functional, cell-based
cells [13] = assay type: functional, cell-based; remark: listed apart in the source
[14] = Trypanosoma cruzi growth suppression in host cells – NIH3T3 host cells, beta-gal luminescence, confirmation (AID 2044); assay type: functional, cell-based;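 further: intracellular parasites grown in NIH/3T3 mouse fibroblasts as host cells; luminescent beta-galactosidase reporter signal from transgenic T. cruzi replicating inside host cells; inhibitors lower the luminescence signal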
[15] = NIH3T3 cell viability loss – ATP luminescence, mouse fibroblasts, counter-screen, dose response (AID 2010); assay type: functional, cell-based;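 further: cells exposed to compound for about 90 hours before reading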
[16] = NIH-3T3 fibroblast cytotoxicity, dose response, cytotoxicity control, cell-based, fluorescence, Alamar Blue, secondary assay (AID 2327); assay type: functional;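 further: NIH-3T3 mouse fibroblasts cultured with fluconazole at 8 µg/mL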
[17] = fluconazole-exposed Candida albicans growth modulators – fluorescence, retest, confirmation (AID 2467); assay type: functional, cell-based
[18] = blockers of bursicon-stimulated LGR2 cAMP reporter – cell-based, HEK293, CRE-luciferase reporter, cherry pick, set 2, dose response (AID 743343); assay type: functional;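 further: transfected cells were stimulated with diluted bursicon conditioned medium after compound addition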
[19] = blockade of melanocortin 4 receptor signaling – cell-based, plate reader, cherry pick, counter-screen for LGR2 antagonist project, dose response (AID 743444); assay type: functional;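 further: transfected HEK 293 cells stimulated with alpha-MSH peptide; potency of inhibitors of the alpha-MSH evoked signal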
H4 = experiment: Luminescence Cell-Based Dose Response HTS to Identify Activators of 5'UTR Stem-Loop Driven Prion Protein mRNA Translation in H4 Neuroglioblastoma Cells. [Related pubchem assays: 1829 (Project Summary), 1814 (Primary HTS)]; assay type: functional; conditions: Homo sapiens
[20] = Luminescence Cell-Based Dose Confirmation HTS to Identify Activators of 5'UTR Stem-Loop Driven Alpha-Synuclein mRNA Translation in H4 Neuroglioblastoma Cells. [Related pubchem assays: 1829 (Project Summary), 1814 (Primary HTS)]; assay type: functional
[21] = Luminescence Cell-Based Dose Response HTS to Identify Activators of Luciferase Translation or Activity in H4 […] Cells. [Related pubchem assays: 1829 (Project Summary), 1814 (Primary HTS)]; assay type: functional
Nonstructural protein 1 = Nonstructural protein 1 (Influenza A virus, UniProt Q194T2); assay type: functional, Influenza A virus (A/California/07/2009(H1N1))
Chain of Nonstructural protein 1 (Q194T2 whole entry): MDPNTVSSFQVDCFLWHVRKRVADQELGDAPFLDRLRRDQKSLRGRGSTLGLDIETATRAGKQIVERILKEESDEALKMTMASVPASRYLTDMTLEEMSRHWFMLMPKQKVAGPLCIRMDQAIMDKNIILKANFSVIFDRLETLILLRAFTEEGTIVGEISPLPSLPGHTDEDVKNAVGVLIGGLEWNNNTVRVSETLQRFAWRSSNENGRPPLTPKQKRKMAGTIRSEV

H9c2 = experiment: cells; assay type: functional, cell-based; conditions: Rattus norvegicus, H9c2, Myocardium;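 further: confirmatory concentration-response retest of ultra-high-throughput screening hits for modulation of myocardial damage; cell death induced by hydrogen peroxide oxidative stress; compound pretreatment for 60 min then peroxide exposure for 2 h; potency is for protecting the cells against peroxide damage rather than for killing them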
Paired box protein Pax-8 = Paired box protein Pax-8 (Homo sapiens, UniProt Q06710); experiment: PAX8 transcriptional activity inhibition in RMG-I – RMG-I cells, luciferase, cherry-pick, dose response (AID 687027); assay type: functional, cell-based;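 further: luciferase reporter driven by Pax8 target thyroperoxidase promoter measured by SteadyGlo luminescence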
Chain of Paired box protein Pax-8 (Q06710 whole entry): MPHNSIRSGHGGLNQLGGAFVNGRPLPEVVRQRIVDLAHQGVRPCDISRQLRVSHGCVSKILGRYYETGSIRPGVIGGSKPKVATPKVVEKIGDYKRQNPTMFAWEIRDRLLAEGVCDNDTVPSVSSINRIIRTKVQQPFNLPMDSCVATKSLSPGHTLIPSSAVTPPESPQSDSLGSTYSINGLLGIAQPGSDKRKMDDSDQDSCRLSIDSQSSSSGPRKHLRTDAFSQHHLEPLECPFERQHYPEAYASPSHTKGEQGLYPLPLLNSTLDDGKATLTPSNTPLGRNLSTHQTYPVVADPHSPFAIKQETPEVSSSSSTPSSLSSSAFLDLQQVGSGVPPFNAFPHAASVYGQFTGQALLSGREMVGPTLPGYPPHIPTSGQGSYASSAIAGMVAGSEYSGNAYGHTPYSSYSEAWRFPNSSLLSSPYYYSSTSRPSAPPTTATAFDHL

[22] = OVCAR-3 cell viability loss – plate reader, dry powder samples, PAX8 inhibitor project, dose response (AID 743044); assay type: functional, cell-based
[23] = OVCAR8 cell viability loss – plate reader, dry powder samples, PAX8 project, dose response (AID 743197); assay type: functional, cell-based; conditions: OVCAR-8
INS1 = experiment: INS-1E survival protection against cytokine death – cell-based, luminescence, retest, dose response (AID 449756); assay type: functional; conditions: Rattus norvegicus;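 further: cell death triggered by IL-1 beta plus TNF-alpha plus IFN-gamma mixture; protective hits raise ATP signal compared with cytokine alone wells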

Cn1c(=O)n(C)c2cc([N+](=O)[O-])c(N3CCN(S(=O)(=O)c4ccc(C(C)(C)C)cc4)CC3)cc21
AC50 [1]: > 70 µM (inactive) | IC50 [2]: 2.73 µM (active) | AC50 [3]: 3.53 µM (active) | AC50 [4]: 9.33 µM (active) | IC50 [5]: 4.02 µM (active)

Cc1nc2nc(SCC(=O)NCCCN3CCOCC3)nn2c(C)c1Cc1ccccc1
AC50 [6]: 5.43 µM (active)

C[C@H](N[C@@H](C)CCc1ccccc1)[C@H](O)c1ccc(O)cc1
AC50 (Cytochrome P450 2C19): 10 µM (inconclusive) | AC50 (Cytochrome P450 3A4 [7]): inconclusive

N#CCCn1c(=O)cnc2cnc(N3CCNCC3)nc21
AC50 (Cytochrome P450 2C9): inconclusive | AC50 (Cytochrome P450 1A2): 12.6 µM (inconclusive)

CCOc1ccc(C(C)=O)cc1N1C(=O)C2C3C=CC(O3)C2C1=O (stereo unspecified)
AC50 (Cytochrome P450 2C9): inconclusive | AC50 (Cytochrome P450 2C19): 39.8 µM (inconclusive)

O=S(=O)(c1cccc2nsnc12)N1CCCC1
AC50 (Cytochrome P450 1A2): 14.1 µM (inconclusive) | AC50 (Cytochrome P450 3A4 [7]): inconclusive

Cc1cc(C)c2nc(N=C(N)NC(=O)Nc3ccccc3)nc(C)c2c1
IC50 (cells [8]): 8.18 µM (active) | CC50 [9]: > 20 µM (active) | CC50 [10]: > 40 µM (active)

CC(C)(C)n1ncc2c(=O)n(CC(=O)NCc3ccccc3Cl)cnc21
AC50 (Cytochrome P450 2D6): 11.2 µM (inconclusive) | AC50 (Cytochrome P450 2C9): inconclusive

CC1=C(CC[C@H](C)CO)O[C@@H]2C[C@@H]3[C@H]4CC[C@H]5C[C@@H](O)CC[C@]5(C)[C@@H]4CC(=O)[C@@]3(C)[C@@H]12
AC50 (Cytochrome P450 3A4 [7]): inconclusive

Cc1ccc(-c2nn3c(C)nnc3s2)cc1NCc1c(F)cccc1Cl
IC50 [2]: 3.44 µM (active) | IC50 [5]: 5.76 µM (active)

CC(Oc1ccc2c(-c3ccccc3)cc(=O)oc2c1)C(=O)NCc1ccccn1 (stereo unspecified)
AC50 [6]: 8.99 µM (active)

O=c1[nH]n(-c2cccc3cccnc23)c(=O)c2ccccc12
AC50 (Cytochrome P450 2C9): inconclusive | AC50 (Cytochrome P450 1A2): 6.31 µM (inconclusive) | AC50 (Cytochrome P450 3A4 [11]): 25.1 µM (inconclusive)

CC(=O)Nc1ccc(S(=O)(=O)Nc2ccc(S(=O)(=O)Nc3nccs3)cc2)cc1
EC50 (cells [12]): > 350 µM (not active) | EC50 (cells [13]): > 350 µM (not active)

C(#Cc1ccccc1)C[N+]1(CC#Cc2ccccc2)CCCCC1
EC50 [14]: 1.88 µM (active) | IC50 [2]: < 0.25 µM (active) | EC50 [15]: > 60 µM (not active) | EC50 [16]: > 160 µM (inactive) | EC50 [17]: > 38 µM (not active) | IC50 [5]: < 0.25 µM (active)

CCCn1nc2cc(C(=O)NC3CCCc4ccccc43)ccc2c1OCC (stereo unspecified)
AC50 (Cytochrome P450 2D6): 25.1 µM (inconclusive) | AC50 (Cytochrome P450 2C9): inconclusive | AC50 (Cytochrome P450 3A4 [11]): 15.8 µM (inconclusive)

O=C(CSc1nncs1)N1c2ccccc2Sc2ccccc21
AC50 [6]: 1.56 µM (active)

Cc1ccc(-c2nnc(-c3ccccc3Br)o2)cc1
AC50 [18]: 14.3 µM (active) | AC50 [19]: 20.3 µM (active)

COc1ccc(C(=O)N2CCC3(CC2)CCN(c2ccccc2)CC3)cc1
AC50 (Cytochrome P450 3A4 [7]): inconclusive

Cc1cc(C(=O)CSc2nc3ccccc3[nH]2)c(C)n1Cc1ccco1
IC50 [2]: 1.93 µM (active) | IC50 [5]: 1.29 µM (active)

COc1ccc2oc(=O)c(C(=O)NC3CCCCCC3)cc2c1
EC50 (H4): 19.8 µM (active) | EC50 (cells [12]): > 350 µM (not active) | EC50 (cells [13]): > 350 µM (not active) | EC50 [20]: 28.6 µM (active) | EC50 [21]: 32.6 µM (active)

O=C(c1cccc(F)c1)N1CCC2(CC1)CCN(c1ccccc1)CC2
AC50 (Cytochrome P450 3A4 [7]): inconclusive

COc1ccc(OC)c(C2=Nn3c(nnc3-c3cc(C)[nH]n3)SC2)c1
EC50 (cells [12]): > 350 µM (not active) | EC50 (cells [13]): > 350 µM (not active)

O=C1C=C(c2ccccc2)CC(c2cccs2)C1n1cnc([N+](=O)[O-])c1 (stereo unspecified)
EC50 (cells [12]): > 350 µM (not active) | EC50 (cells [13]): > 350 µM (not active)

CCS(=O)(=O)N1CCN(c2c(Cl)cccc2[N+](=O)[O-])CC1
AC50 (Cytochrome P450 1A2): 15.8 µM (inconclusive) | AC50 (Cytochrome P450 3A4 [7]): inconclusive

CCOc1cccc(-c2c(C(=O)N/N=C(\C)c3ccccn3)nnn2-c2nonc2N)c1
IC50 (Nonstructural protein 1): 3.36 µM (active) | IC50 (H9c2): > 79 µM (inactive) | EC50 (cells [12]): 6.32 µM (active) | EC50 (cells [13]): > 350 µM (not active) | EC50 [16]: 18.2 µM (active) | EC50 [17]: > 38 µM (not active)

C/C=C/c1ccc2c(c1)O[C@@H](CN(C)C(=O)Cc1cccnc1)[C@H](C)CN([C@H](C)CO)S2(=O)=O
AC50 [6]: 10.3 µM (active)

CN(C(=O)CSc1nc2ccccc2c(=O)n1-c1ccccc1Cl)C1CCS(=O)(=O)C1 (stereo unspecified)
AC50 [6]: 2.22 µM (active)

C[C@@H]1CCCCO[C@H](CN(C)C(=O)Nc2ccc(F)cc2)[C@@H](C)CN([C@@H](C)CO)C(=O)c2cc(NS(=O)(=O)c3ccc(Cl)cc3)ccc2O1
AC50 (Paired box protein Pax-8): 4.84 µM (active) | AC50 [22]: 19.6 µM (active) | AC50 [23]: 35 µM (active)

CCOc1ccc(C(=O)N/N=C(/C)C2C(=O)c3ccccc3C2=O)cc1
CC50 [9]: > 20 µM (active) | CC50 [10]: > 40 µM (active)

COc1ccc(/C=N/NC(=O)c2nc(-c3ccccc3)n(-c3ccccc3)n2)c(O)c1
EC50 (cells [12]): 10.1 µM (active) | EC50 (cells [13]): > 350 µM (not active) | AC50 (INS1): 1.47 µM (active)
